Data published in ChEMBL document CHEMBL4732037, “Drugging the undruggable: a computational chemist''s view of KRASG12C” (RSC Med Chem, 2021).

Legend:
[1] = Lipophilicity, log D of compound; format: physicochemical; details: octanol/water
[2] = Efflux ratio in human Caco2 cells; format: ADME, cell-based; details: Caco-2

logD [1]	efflux ratio [2]	SMILES
3		C=CC(=O)N1CCN2c3c(cnc4cc(-c5c(O)cccc5F)c(Cl)cc34)NC(=O)[C@H]2C1
3	0.9	C=CC(=O)N1CCN2c3c(cnc4cc(-c5c(O)cccc5F)c(Cl)cc34)N(C)C(=O)[C@H]2C1
